Data on 16 compounds can be found in patent publication US20260356830A1, “COMPOUNDS FOR MODULATING RET PROTEIN” (Bristol-Myers Squibb Company, priority 2022, published 2026).

In the experiment the target is T1, CCDC6-RET (Homo sapiens, UniProt P07949+Q16204+Q96SW2).
T1 construct: CCDC6 (natural N-terminal fusion partner, UniProt Q16204); endogenous in cells; host or cells: TPC-1 (parental, papillary thyroid carcinoma)
The experiment is described as follows: Cellular RET degradation, AlphaLISA, TPC-1 cell line. It is filed as cell-based. The following applies: for Dmax: TPC1, human, 24 h, read-out: Cell Density TPC-1/CCDC6-RET Ymax %; for DC50: read-out: Cell Density TPC-1/CCDC6-RET DC50, half-maximal degradation concentration, TPC-1 (CCDC6-RET), 24 hrs. The method in brief: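 TPC-1 papillary thyroid carcinoma cells (endogenous CCDC6-RET) in DMEM with 2% FBS, compound-treated 24 h at 37 °C. RET in lysates quantified by AlphaLISA luminescence, normalized to media-only and DMSO wells; DC50 and maximal degradation from 4-parameter logistic fit.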
Background: Alpha assays give light when donor and acceptor beads are brought close together.

A value given as a limit tells only on which side of the number the result lay.

T1 sequence (Q16204+P07949 fused): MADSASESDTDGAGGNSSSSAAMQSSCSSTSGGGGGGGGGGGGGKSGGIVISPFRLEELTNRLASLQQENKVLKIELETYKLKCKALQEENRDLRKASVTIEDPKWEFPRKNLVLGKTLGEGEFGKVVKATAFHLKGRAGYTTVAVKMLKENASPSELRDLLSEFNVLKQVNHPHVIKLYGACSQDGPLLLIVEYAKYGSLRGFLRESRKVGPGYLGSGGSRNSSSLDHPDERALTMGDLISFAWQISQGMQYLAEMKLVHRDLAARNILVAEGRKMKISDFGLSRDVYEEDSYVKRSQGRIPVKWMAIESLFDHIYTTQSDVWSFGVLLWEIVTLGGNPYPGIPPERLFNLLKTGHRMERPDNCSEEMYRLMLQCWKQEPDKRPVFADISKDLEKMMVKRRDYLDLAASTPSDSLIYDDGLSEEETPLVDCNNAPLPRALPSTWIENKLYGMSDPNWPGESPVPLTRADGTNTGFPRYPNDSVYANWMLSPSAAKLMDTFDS
T1 sequence (Q96SW2 whole entry, the tested form may be a part): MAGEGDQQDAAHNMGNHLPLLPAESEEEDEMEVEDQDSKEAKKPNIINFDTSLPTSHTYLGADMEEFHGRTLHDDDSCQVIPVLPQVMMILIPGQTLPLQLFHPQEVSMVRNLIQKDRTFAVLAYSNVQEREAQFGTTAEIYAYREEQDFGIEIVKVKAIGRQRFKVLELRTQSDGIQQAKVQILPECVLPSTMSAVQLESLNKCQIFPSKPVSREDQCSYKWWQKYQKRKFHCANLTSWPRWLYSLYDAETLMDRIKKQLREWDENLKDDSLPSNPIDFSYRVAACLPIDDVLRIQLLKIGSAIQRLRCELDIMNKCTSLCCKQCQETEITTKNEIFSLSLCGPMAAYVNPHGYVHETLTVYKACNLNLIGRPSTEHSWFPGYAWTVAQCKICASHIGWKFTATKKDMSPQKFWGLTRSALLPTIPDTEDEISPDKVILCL
T1 sequence (Q16531 whole entry partner, the tested form may be a part): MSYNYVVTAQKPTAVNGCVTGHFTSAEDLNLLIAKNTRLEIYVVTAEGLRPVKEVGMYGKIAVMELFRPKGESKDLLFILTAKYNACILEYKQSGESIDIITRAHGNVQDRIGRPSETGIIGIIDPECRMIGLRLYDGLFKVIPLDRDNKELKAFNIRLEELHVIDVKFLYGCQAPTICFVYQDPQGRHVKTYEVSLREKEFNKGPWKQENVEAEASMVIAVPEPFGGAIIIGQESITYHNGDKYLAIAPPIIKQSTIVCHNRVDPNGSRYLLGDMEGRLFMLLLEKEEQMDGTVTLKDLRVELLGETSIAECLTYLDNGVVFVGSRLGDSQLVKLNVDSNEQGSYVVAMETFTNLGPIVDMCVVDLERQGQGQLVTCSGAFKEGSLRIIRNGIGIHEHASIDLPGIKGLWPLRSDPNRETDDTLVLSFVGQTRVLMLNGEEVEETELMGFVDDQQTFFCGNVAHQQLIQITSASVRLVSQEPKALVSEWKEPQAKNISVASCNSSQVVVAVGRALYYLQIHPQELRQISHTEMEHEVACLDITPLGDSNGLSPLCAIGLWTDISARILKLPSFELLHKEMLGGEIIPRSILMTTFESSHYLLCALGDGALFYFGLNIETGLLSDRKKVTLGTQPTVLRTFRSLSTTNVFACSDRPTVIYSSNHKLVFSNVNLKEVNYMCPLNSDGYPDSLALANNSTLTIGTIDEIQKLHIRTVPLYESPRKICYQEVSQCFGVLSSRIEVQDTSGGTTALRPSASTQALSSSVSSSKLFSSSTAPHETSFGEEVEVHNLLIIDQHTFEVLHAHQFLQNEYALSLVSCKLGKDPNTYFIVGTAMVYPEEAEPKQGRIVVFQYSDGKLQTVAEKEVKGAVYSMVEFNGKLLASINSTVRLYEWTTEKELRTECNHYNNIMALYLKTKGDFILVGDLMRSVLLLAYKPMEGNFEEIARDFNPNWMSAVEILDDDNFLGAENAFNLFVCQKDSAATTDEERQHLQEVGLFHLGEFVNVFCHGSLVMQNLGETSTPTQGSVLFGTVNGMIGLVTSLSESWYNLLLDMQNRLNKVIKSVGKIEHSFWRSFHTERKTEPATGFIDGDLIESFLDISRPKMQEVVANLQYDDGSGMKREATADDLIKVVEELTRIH

Regarding `CCOc1cc(-c2ccc(N3CCC(COCc4cn(CCN5CCN(c6ccc7c(c6)CN(C6CCC(=O)NC6=O)C7=O)CC5)nn4)(NC(=O)c4cc(F)ccc4F)CC3)nc2)c2c(C#N)cnn2c1` (centres unmarked) [Example 49, N-[1-[5-(3-cyano-6-ethoxy-pyrazolo[1,5-a]pyridin-4-yl)-2-pyridyl]-4-[[1-[2-[4-[2-(2,6-dioxo-3-piperidyl)-1-oxo-isoindolin-5-yl]piperazin-1-yl]ethyl]triazol-4-yl]methoxymethyl]-4-piperidyl]-2,5-difluoro-benzamide], the Dmax is above 90% and the DC50 lay within 2 to 10 nM.

On to `CCOc1cc(-c2ccc(N3CCC(C)(CN4CCN(C(=O)CCN5CCC(c6ccc7c(c6)C(=O)N(C6CCC(=O)NC6=O)C7)CC5)CC4)CC3)nc2)c2c(C#N)cnn2c1` (centres unmarked) [Example 147, 4-[6-(4-{[4-(3-{4-[2-(2,6-dioxopiperidin-3-yl)-3-oxo-2,3-dihydro-1H-isoindol-5-yl]piperidin-1-yl}propanoyl)piperazin-1-yl]methyl}-4-methylpiperidin-1-yl)pyridin-3-yl]-6-ethoxypyrazolo[1,5-a]pyridine-3-carbonitrile], for which the Dmax was in the range of 60 to 90% and the DC50 is 10 to 100 nM.

As for `CCOc1cc(-c2ccc(N3CCC(CN4CCN(C(=O)CCCCN5CCN(c6ccc7c(N8CCC(=O)NC8=O)nn(C)c7c6)CC5)CC4)(NC(=O)c4cc(F)ccc4F)CC3)nc2)c2c(C#N)cnn2c1` [Example 40, N-(1-(5-(3-cyano-6-ethoxypyrazolo[1,5-a]pyridin-4-yl)pyridin-2-yl)-4-((4-(5-(4-(3-(2,4-dioxotetrahydropyrimidin-1(2H)-yl)-1-methyl-1H-indazol-6-yl)piperazin-1-yl)pentanoyl)piperazin-1-yl)methyl)piperidin-4-yl)-2,5-difluorobenzamide], the Dmax is above 90% and the DC50 lay within 2 to 10 nM.

Turning to `CCOc1cc(-c2ccc(N3CCC(CN4CCN(C(=O)CCN5CCC(c6ccc7c(c6)C(=O)N(C6CCC(=O)NC6=O)C7)CC5)CC4)CC3)nc2)c2c(C#N)cnn2c1` (centres unmarked) [Example 126, 4-[6-(4-{[4-(3-{4-[2-(2,6-dioxopiperidin-3-yl)-3-oxo-2,3-dihydro-1H-isoindol-5-yl]piperidin-1-yl}propanoyl)piperazin-1-yl]methyl}piperidin-1-yl)pyridin-3-yl]-6-ethoxypyrazolo[1,5-a]pyridine-3-carbonitrile], the Dmax fell in the range of 60 to 90% and the DC50 lay in the range of 100 to 2000 nM.

As to `CCOc1cc(-c2ccc(N3CCC(Cc4ccccc4)(NC(=O)N4CCC(N5CCC(c6ccc7c(c6)C(=O)N(C6CCC(=O)NC6=O)C7)CC5)CC4)CC3)nc2)c2c(C#N)cnn2c1` (centres unmarked) [Example 56, N-[4-benzyl-1-[5-(3-cyano-6-ethoxy-pyrazolo[1,5-a]pyridin-4-yl)-2-pyridyl]-4-piperidyl]-4-[4-[2-(2,6-dioxo-3-piperidyl)-3-oxo-isoindolin-5-yl]-1-piperidyl]piperidine-1-carboxamide], the Dmax is 60 to 90% and the DC50 was 2 to 10 nM.

In the case of `CCOc1cc(-c2ccc(N3CCC(CN4CCN(C(=O)CCCCCCNC(=O)COc5cccc6c5CN(C5CCC(=O)NC5=O)C6=O)CC4)(NC(=O)c4cc(F)ccc4F)CC3)nc2)c2c(C#N)cnn2c1` (centres unmarked) [Example 27, N-[1-(5-{3-cyano-6-ethoxypyrazolo[1,5-a]pyridin-4-yl}pyridin-2-yl)-4-({4-[7-(2-{[2-(2,6-dioxopiperidin-3-yl)-1-oxo-2,3-dihydro-1H-isoindol-4-yl]oxy}acetamido)heptanoyl]piperazin-1-yl}methyl)piperidin-4-yl]-2,5-difluorobenzamide], the Dmax fell in the range of 60 to 90% and the DC50 fell in the range of 2 to 10 nM.

In the case of `CCOc1cc(-c2ccc(N3CCC(CN4CCN(C(=O)CN5CCN(c6ccc7c(c6)CN(C6CCC(=O)NC6=O)C7=O)CC5)CC4)(NC(=O)c4cc(F)ccc4F)CC3)nc2)c2c(C#N)cnn2c1` (centres unmarked) [Example 6, N-(1-(5-(3-cyano-6-ethoxypyrazolo[1,5-a]pyridin-4-yl)pyridin-2-yl)-4-((4-(2-(4-(2-(2,6-dioxopiperidin-3-yl)-1-oxoisoindolin-5-yl)piperazin-1-yl)acetyl)piperazin-1-yl)methyl)piperidin-4-yl)-2,5-difluorobenzamide], the Dmax is above 90% and the DC50 lay within 2 to 10 nM.

`CCOc1cc(-c2ccc(N3CCC(CN(C)C(=O)CCCCN4CCC(c5ccc6c(c5)C(=O)N(C5CCC(=O)NC5=O)C6)CC4)(NC(=O)c4cc(F)ccc4F)CC3)nc2)c2c(C#N)cnn2c1` (centres unmarked) [Example 145, N-[1-(5-{3-cyano-6-ethoxypyrazolo[1,5-a]pyridin-4-yl}pyridin-2-yl)-4-[(5-{4-[2-(2,6-dioxopiperidin-3-yl)-3-oxo-2,3-dihydro-1H-isoindol-5-yl]piperidin-1-yl}-N-methylpentanamido)methyl]piperidin-4-yl]-2,5-difluorobenzamide]: the Dmax lay in the range of 60 to 90% and the DC50 lay in the range of 2 to 10 nM.

Consider `CCOc1cc(-c2ccc(N3CCC(CN4CCN(C(=O)CCOCCN5CCN(c6ccc7c(c6)CN(C6CCC(=O)NC6=O)C7=O)CC5)CC4)(NC(=O)c4cc(F)ccc4F)CC3)nc2)c2c(C#N)cnn2c1` (centres unmarked) [Example 104, N-[1-(5-{3-cyano-6-ethoxypyrazolo[1,5-a]pyridin-4-yl}pyridin-2-yl)-4-({4-[3-(2-{4-[2-(2,6-dioxopiperidin-3-yl)-1-oxo-2,3-dihydro-1H-isoindol-5-yl]piperazin-1-yl}ethoxy)propanoyl]piperazin-1-yl}methyl)piperidin-4-yl]-2,5-difluorobenzamide], for which the Dmax was in the range of 60 to 90% and the DC50 fell in the range of 2 to 10 nM.

For `CCOc1cc(-c2ccc(N3CCC(CN(C(=O)CCCCN4CCC(c5ccc6c(c5)C(=O)N(C5CCC(=O)NC5=O)C6)CC4)C(C)C)(NC(=O)c4cc(F)ccc4F)CC3)nc2)c2c(C#N)cnn2c1` (centres unmarked) [Example 170, N-[1-(5-{3-cyano-6-ethoxypyrazolo[1,5-a]pyridin-4-yl}pyridin-2-yl)-4-[(5-{4-[2-(2,6-dioxopiperidin-3-yl)-3-oxo-2,3-dihydro-1H-isoindol-5-yl]piperidin-1-yl}-N-(propan-2-yl)pentanamido)methyl]piperidin-4-yl]-2,5-difluorobenzamide], the Dmax lay within 60 to 90% and the DC50 was 100 to 2000 nM.

As for `CCOc1cc(-c2ccc(N3CCC(NC(=O)c4cc(F)ccc4F)(C(=O)NCCCCCCN4CCC(c5ccc6c(c5)C(=O)N(C5CCC(=O)NC5=O)C6)CC4)CC3)nc2)c2c(C#N)cnn2c1` (centres unmarked) [Example 163, 1-(5-{3-cyano-6-ethoxypyrazolo[1,5-a]pyridin-4-yl}pyridin-2-yl)-4-(2,5-difluorobenzamido)-N-(6-{4-[2-(2,6-dioxopiperidin-3-yl)-3-oxo-2,3-dihydro-1H-isoindol-5-yl]piperidin-1-yl}hexyl)piperidine-4-carboxamide], the Dmax was in the range of 60 to 90% and the DC50 was 2 to 10 nM.

As for `CCOc1cc(-c2ccc(N3CCC(CN(C)C(=O)CCCCN4CCC(c5ccc6c(c5)CN(C5CCC(=O)NC5=O)C6=O)CC4)(NC(=O)c4cc(F)ccc4F)CC3)nc2)c2c(C#N)cnn2c1` (centres unmarked) [Example 139, N-[1-(5-{3-cyano-6-ethoxypyrazolo[1,5-a]pyridin-4-yl}pyridin-2-yl)-4-[(5-{4-[2-(2,6-dioxopiperidin-3-yl)-1-oxo-2,3-dihydro-1H-isoindol-5-yl]piperidin-1-yl}-N-methylpentanamido)methyl]piperidin-4-yl]-2,5-difluorobenzamide], the Dmax is above 90% and the DC50 is 10 to 100 nM.

With `CCOc1cc(-c2ccc(N3CCC(COCCN4CCN(C(=O)CCN5CCN(c6ccc7c(c6)C(=O)N(C6CCC(=O)NC6=O)C7)CC5)CC4)(NC(=O)c4cc(F)ccc4F)CC3)nc2)c2c(C#N)cnn2c1` (centres unmarked) [Example 33, N-[1-[5-(3-cyano-6-ethoxy-pyrazolo[1,5-a]pyridin-4-yl)-2-pyridyl]-4-[2-[4-[3-[4-[2-(2,6-dioxo-3-piperidyl)-3-oxo-isoindolin-5-yl]piperazin-1-yl]propanoyl]piperazin-1-yl]ethoxymethyl]-4-piperidyl]-2,5-difluoro-benzamide], the Dmax is 60 to 90% and the DC50 was 2 to 10 nM.

Regarding `CCOc1cc(-c2ccc(N3CCC(CN4CCN(C(=O)CCN5CCC(c6ccc7c(c6)C(=O)N(C6CCC(=O)NC6=O)C7)CC5)CC4)(NC(=O)C4CC4)CC3)nc2)c2c(C#N)cnn2c1` (centres unmarked) [Example 9, N-(1-(5-(3-cyano-6-ethoxypyrazolo[1,5-a]pyridin-4-yl)pyridin-2-yl)-4-((4-(3-(4-(2-(2,6-dioxopiperidin-3-yl)-3-oxoisoindolin-5-yl)piperidin-1-yl)propanoyl)piperazin-1-yl)methyl)piperidin-4-yl)cyclopropanecarboxamide], the Dmax is above 90% and the DC50 was in the range of 2 to 10 nM.

As for `CCOc1cc(-c2ccc(N3CCC(CN4CCN(C(=O)CCCCCCN5CCN(c6ccc7c(c6)C(=O)N(C6CCC(=O)NC6=O)C7)CC5)CC4)(NC(=O)c4cc(F)ccc4F)CC3)nc2)c2c(C#N)cnn2c1` (centres unmarked) [Example 16, N-[1-(5-{3-cyano-6-ethoxypyrazolo[1,5-a]pyridin-4-yl}pyridin-2-yl)-4-{[4-(7-{4-[2-(2,6-dioxopiperidin-3-yl)-3-oxo-2,3-dihydro-1H-isoindol-5-yl]piperazin-1-yl}heptanoyl)piperazin-1-yl]methyl}piperidin-4-yl]-2,5-difluorobenzamide], the Dmax is above 90% and the DC50 is 2 to 10 nM.

For the compound `CCOc1cc(-c2ccc(N3CCC(C)(CN4CCN(C(=O)CCCCCCN5CCN(c6ccc7c(c6)CN(C6CCC(=O)NC6=O)C7=O)CC5)CC4)CC3)nc2)c2c(C#N)cnn2c1` (centres unmarked) [Example 128, 4-[6-(4-{[4-(7-{4-[2-(2,6-dioxopiperidin-3-yl)-1-oxo-2,3-dihydro-1H-isoindol-5-yl]piperazin-1-yl}heptanoyl)piperazin-1-yl]methyl}-4-methylpiperidin-1-yl)pyridin-3-yl]-6-ethoxypyrazolo[1,5-a]pyridine-3-carbonitrile], the Dmax was 60 to 90% and the DC50 fell in the range of 100 to 2000 nM.
